Assay results taken from patent publication US5602174A, “Treatment” (Beecham Wuefling GmbH & Co., priority 1986, dated 1997).

What was measured:
[1] = Haemodynamic profile in anaesthetized rats; assay type: in vivo, rat; set-up: Dhr^20 (i.v. dose which reduces heart rate by ca. 20%) / Dhr^20 (dose which reduces heart rate by ca. 20%): unit not given here
Text: The effect of compounds of the invention on heart rate, systolic left ventricular pressure, left ventricular dp/dt max and mean arterial blood pressure was investigated so as to obtain information on the anti-anginal potential of these compounds, by reducing the oxygen demand of the ischaemic heart.
*Dhr^20 = i.v. dose which reduces heart rate by ca. 20%
**LVP = systolic left ventricular pressure
***BP = mean arterial blood pressure
^a = i.d. administration

[2] = system: coronary spasm; assay: Vasopressin test in anaesthetized rats (coronary spasm, ST-segment elevation in the ECG); assay type: in vivo, rat; settings: 0.6 g/kg i.d., vasopressin (Lysopressin 1 I.U./kg) i.v.
Method: Vasopressin (Lysopressin: 1 I.U./kg) was administered intravenously in order to provoke coronary spasm (ST-segment elevation in the ECG).
The ability of test compounds to reduce coronary spasm is taken as a measure of their anti-anginal potential in spasm-induced angina pectoris. (Ref. Drug. Res. 33(11), 8,1117-1121 (1983)).

[3] = i.v. at Dhr^20, anaesthetized rat

SMILES	% effect of Dhr^20 on BP (mean arterial blood pressure) [1, 3]	% effect of Dhr^20 on LVP (systolic left ventricular pressure) [1, 3]	% effect of Dhr^20 on dp/dtmax (left ventricular dp/dt max) [1, 3] [%]	Dhr^20 (i.v. dose which reduces heart rate by ca. 20%) ([1]; i.v., anaesthetized rat)	i.v. duration of action on heart rate (rat) ([1]; i.v., anaesthetized rat) [min]	active against coronary spasm [2]	% effect of Dhr^20 on BP (mean arterial blood pressure) ([1]; rat, in vivo) [%]	Dhr^20 (dose which reduces heart rate by ca. 20%) ([1]; rat, in vivo)	duration of action on heart rate (rat) ([1]; rat, in vivo) [min]	% effect of Dhr^20 on BP (mean arterial blood pressure) ([1]; rat, in vivo, iv) [%]	% effect of Dhr^20 on LVP (systolic left ventricular pressure) ([1]; rat, in vivo, iv) [%]	Dhr^20 (i.v. dose which reduces heart rate by ca. 20%) ([1]; rat, in vivo, iv)	i.v. duration of action on heart rate (rat) ([1]; rat, in vivo, iv) [min]
CCCCC(=O)N(CCCN(C)CCc1ccc(OC)c(OC)c1)c1ccc(OC)c(OC)c1 [Example E12, (N-[3,4-Dimethoxyphenyl]-N-3-[N'-2-(3,4-dimethoxyphenyl)-ethyl-N'-methylamino]-propyl)-pentanoic acid amide]	-11%	-6%	-6	1.6	10	–	–	–	–	–	–	–	–
COc1ccc(CCN(C)CCCN(C(=O)NCc2ccccc2)c2ccc(OC)c(OC)c2)cc1OC [Example E30, (N-[3,4-Dimethoxyphenyl]-N-3-[N'-2-(3,4-dimethoxyphenyl)-ethyl-N'-methylamino]-propyl)-N"-benzylurea]	-15%	-10%	-20	1.6	10	–	–	–	–	–	–	–	–
COc1ccc(CCN(C)CCCN(Cc2ccccc2)c2ccc(OC)c(OC)c2)cc1OC [Example E4, (N-[3,4-Dimethoxyphenyl]-N-3-[N'-2-(3,4-dimethoxyphenyl)-ethyl-N'-methylamino]-propyl)-benzylamine]	-6%	-3%	-12	3.2	10	–	–	–	–	–	–	–	–
CCCNC(=O)N(CCCN(C)CCc1ccc(OC)c(OC)c1)c1ccc(OC)c(OC)c1 [Example E27, (N-[3,4-Dimethoxyphenyl]-N-3-[N'-2-(3,4-dimethoxyphenyl)-ethyl-N'-methylamino]-propyl)-N"-n-propyl-urea]	-4%	-2%	-1	6.4	5 to 10	–	–	–	–	–	–	–	–
CCCCOC(=O)N(CCCN(C)CCc1ccc(OC)c(OC)c1)c1ccc(OC)c(OC)c1 [Example E24, (N-[3,4-Dimethoxyphenyl]-N-3-[N'-2-(3,4-dimethoxyphenyl)-ethyl-N'methylamino]-propyl)-n-butyl-urethane]	-15%	-13%	-8	3.2	10	–	–	–	–	–	–	–	–
COc1ccc(CCN(C)CCCN(c2ccc(OC)c(OC)c2)c2ncc([N+](=O)[O-])cc2[N+](=O)[O-])cc1OC [Example E44]	-10%	-6%	-8	3.2	10	–	–	–	–	–	–	–	–
COc1ccc(CCN(C)CCCN(Cc2ccccc2[N+](=O)[O-])c2ccc(OC)c(OC)c2)cc1OC [Example E1]	0%	-2%	-3	1.6	10	active	–	–	–	–	–	–	–
COc1ccc(CCN(C)CCCN(C(=O)Oc2ccccc2)c2ccc(OC)c(OC)c2)cc1OC [Example E25, (N-[3,4-Dimethoxyphenyl]-N-3-[N'-2-(3,4-dimethoxyphenyl)-ethyl-N'-methylamino]-propyl)-phenyl-urethane]	-14%	-10%	-2	0.8	10	–	–	–	–	–	–	–	–
CCCCCN(CCCN(C)CCc1ccc(OC)c(OC)c1)c1ccc(OC)c(OC)c1 [Example E34, (N-[3,4-Dimethoxyphenyl]-N-3-[N'-2-(3,4-dimethoxyphenyl)-ethyl-N'-methylamino]-propyl)-n-pentylamine]	-9%	-9%	-10	1.6	5 to 10	–	–	–	–	–	–	–	–
COc1ccc(CCN(C)CCN(C(=O)NC(C)c2ccccc2)c2ccc(OC)c(OC)c2)cc1OC (centres unmarked) [Example E32]	-13%	-7%	-3	3.2	10	–	–	–	–	–	–	–	–
COc1ccc(CCN(C)CCCN(Cc2ccc([N+](=O)[O-])cc2)c2ccc(OC)c(OC)c2)cc1OC [Example E6, (N-[3,4-Dimethoxyphenyl]-N-3-[N'-2-(3,4-dimethoxyphenyl)-ethyl-N'-methylamino]-propyl)-(4-nitro)-benzylamine]	+1%	+5%	-5	0.4	60	–	–	–	–	–	–	–	–
COc1ccc(CCN(C)CCCN(C(=O)CCc2ccccc2)c2ccc(OC)c(OC)c2)cc1OC [Example E15, (N-[5,4-Dimethoxyphenyl]-N-3-[N'-2-(3,4-dimethoxyphenyl)-ethyl-N'-methylamino]-propyl)-(3-phenyl)propanoic acid amide]	-8%	-7%	-7	1.6	10	–	–	–	–	–	–	–	–
COc1ccc(CCN(C)CCCN(C(=O)c2ccc([N+](=O)[O-])cc2)c2ccc(OC)c(OC)c2)cc1OC [Example E50, (N-[3,4-Dimethoxyphenyl]-N-3-[N'-2-(3,4-dimethoxyphenyl)-ethyl-N'-methyl-amino]-propyl)-4-nitrobenzamide]	–	–	–	–	–	–	-6	16	> 90	-1	-1	1.6	10
